In patent US20250197357A1, “PPARG INVERSE AGONISTS AND USES THEREOF” (Flare Therapeutics Inc., priority 2022, published 2025):

Tests used:
[1] = biological target: T1, PPARG/RXRA LBD heterodimer (Homo sapiens, UniProt P37231); assay: PPARγ-NCOR1 recruitment assay (TR-FRET); assay type: binding; settings: NCOR1 ID2 peptide, 80 nM Rosiglitazone, 3 hours, read-out: PPARG - NCOR recruitment assay EC50
T1 construct: 2 nM WT PPARG LBD (e. coli expressed, His-TEV-Q203-Y477); fused on or other part: N-terminal His tag with TEV site on the PPARG LBD
Experimental: Compound potency (EC50) and maximal extent of NCOR1 recruitment to PPARG were assessed a TR-FRET binding assay measuring association of a biotinylated NCOR1 ID2 peptide (Biotin-[…]-amide) to PPARG/RXRA LBD heterodimer. Specifically, a 20 microliters of TR-FRET master mix consisting of 2 nM WT PPARG LBD (e. coli expressed, His-TEV-Q203-Y477; Uniprot ID P37231-2), 2 nM WT RXRA LBD or mutant S427F RXRA LBD (e. coli expressed, Flag-TEV-E228-T462; […]. Mixtures were incubated for 3 hours and read in an EnVision plate reader (Perkin Elmer) with Ex/Em 615/665. To determine the potency (EC50) and extent of NCOR1 recruitment, TR-FRET ratios were normalized to the average ratio of DMSO control wells (0%) and to the average maximum ratio for positive control compound (T0070907 (2-chloro-5-nitro-N-4-pyridinyl-benzamide); defined as 100%) in CDD Vault and analyzed using the Levenberg-Marquardt algorithm.
T1 sequence (O75376 2251-2273 limits assumed, one chain of several, further chain): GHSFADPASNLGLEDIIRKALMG

[2] = tested on: ANGPTL4, a PPARG target gene, in HT1197 (RXRA S427F mutation) cells; assay: Bladder cancer pharmacodynamic assay (HT1197 cell assay, qPCR of PPARG target genes); assay type: cell-based; settings: Homo sapiens; for inhibition at 0.1 µM: 100 nM compound, 24 hours, relative to DMSO control; for EC50: 24 hours treatment, qPCR
Experimental: 5637 (PPARG amplified) and HT1197 (RXRA S427F mutation) cells were used for assessment of modulation of PPARG target genes using quantitative PCR. Cells were treated for 24 hours with PPARG inverse agonists prior to analysis of FABP4 (IDT, Cat: Hs.PT 58.20106818) and ANGPTL4 (IDT, Cat: Hs.PT 58.25480012) expression, with expression of the housekeeping gene TBP (IDT, Cat: Hs.PT 58v.39858774) used to normalize expression across samples. Quantitative PCR was performed using an ABI QuantStudio 7 Flex Reaction system. Data were analyzed and reported relative to DMSO control using the comparative Ct method (ΔΔCt).

[3] = biological target: T2, PPARG/RXRA LBD heterodimer (Homo sapiens, UniProt P37231); assay: PPARγ-MED1 blockade assay (TR-FRET); assay type: binding; settings: MED1 LxxLL peptide, 80 nM Rosiglitazone, 3 hours
T2 construct: His-TEV-Q203-Y477; Uniprot ID P37231-2; made in house; host or cells: E. coli
T2 sequence (P37231 203-477 isoform P37231-2): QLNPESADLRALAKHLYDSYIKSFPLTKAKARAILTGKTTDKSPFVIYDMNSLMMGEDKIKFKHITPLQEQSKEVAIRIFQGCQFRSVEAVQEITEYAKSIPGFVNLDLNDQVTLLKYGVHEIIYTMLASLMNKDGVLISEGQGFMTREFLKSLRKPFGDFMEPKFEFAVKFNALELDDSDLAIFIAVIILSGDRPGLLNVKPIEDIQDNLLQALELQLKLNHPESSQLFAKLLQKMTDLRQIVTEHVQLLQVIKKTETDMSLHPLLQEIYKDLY
T2 sequence (P19793 228-462 partner limits assumed): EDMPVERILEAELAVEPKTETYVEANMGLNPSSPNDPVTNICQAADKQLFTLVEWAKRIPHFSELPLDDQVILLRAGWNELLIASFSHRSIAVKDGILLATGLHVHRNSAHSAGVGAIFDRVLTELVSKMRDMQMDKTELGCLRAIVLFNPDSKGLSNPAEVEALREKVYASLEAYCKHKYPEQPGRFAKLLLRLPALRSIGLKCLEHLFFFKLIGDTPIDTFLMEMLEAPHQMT
Experimental: Compound potency (IC50) and maximal extent of MED1 repulsion to PPARG were assessed a TR-FRET binding assay measuring association of a biotinylated MED1 LxxLL peptide (Biotin—[…]-amide) to PPARG/RXRA LBD heterodimer. Specifically, a 20 microliters of TR-FRET master mix consisting of 2 nM WT PPARG LBD (e. coli expressed, His-TEV-Q203-Y477; Uniprot ID P37231-2), 2 nM WT RXRA LBD (e. coli expressed, Flag-TEV-E228-T462; […]. Mixtures were incubated for 3 hours and read in an EnVision plate reader (Perkin Elmer) with Ex/Em 615/665. To determine the potency (IC50) and extent of MED1 repulsion, TR-FRET ratios were normalized to the average ratio of DMSO control wells (0%) and to the average minimum ratio for positive control compound (GW9662 (2-chloro-5-nitrobenzanilide); defined as 100%) in CDD Vault and analyzed using the Levenberg-Marquardt algorithm.

Structure (SMILES)	EC50 [1] [µM]	EC50 [2] [µM]	EC50 [3] [µM]	inhibition at 0.1 µM [2] [%]
CS(=O)(=O)c1ccc(C#N)cc1C(=O)Nc1ccc(C#N)c(C(F)(F)F)c1 [Example 7, 5-cyano-N-(4-cyano-3-(trifluorometh-yl)phenyl)-2-(methylsulfonyl) benzamide]	1 to 10	–	1 to 10	77
CS(=O)(=O)c1ccc(C#N)cc1C(=O)Nc1ccnc(C(F)(F)F)c1 [Example 9, 5-cyano-2-(methylsulfonyl)-N-(2-(trifluorometh-yl)pyridin-4-yl)benzamide]	1 to 10	–	1 to 10	64
CN1CCN(c2ccc(NC(=O)c3cc(C#N)ccc3S(C)(=O)=O)cn2)CC1 [Example 12, 5-cyano-N-(6-(4-methylpiperazin-1-yl)pyridin-3-yl)-2-(methylsulfonyl) benzamide]	> 10	–	> 10	25
CS(=O)(=O)c1ccc(C#N)cc1C(=O)Nc1ccc2cnccc2c1 [Example 14, 5-cyano-N-(isoquinolin-6-yl)-2-(methylsulfonyl) benzamide]	1 to 10	–	1 to 10	35
CS(=O)(=O)c1ccc(C#N)cc1C(=O)Nc1ccc(F)c(C#N)c1 [Example 17, 5-cyano-N-(3-cyano-4-fluorophenyl)-2-(methylsulfonyl) benzamide]	1 to 10	–	1 to 10	43
CC(=O)N1CCN(c2ccc(NC(=O)c3cc(C#N)ccc3S(C)(=O)=O)cn2)CC1 [Example 18, N-(6-(4-acetylpiperazin-1-yl)pyridin-3-yl)-5-cyano-2-(methylsulfonyl) benzamide]	> 10	–	> 10	13
Cc1cc(NC(=O)c2cc(C#N)ccc2S(C)(=O)=O)cc(C)n1 [Example 19, 5-cyano-N-(2,6-dimethylpyridin-4-yl)-2-(methylsulfonyl) benzamide]	> 10	–	> 10	20
CS(=O)(=O)c1ccc(C#N)cc1C(=O)Nc1ccn2nccc2c1 [Example 20, 5-cyano-2-(methylsulfonyl)-N-(pyrazolo[1,5-a]pyridin-5-yl)benzamide]	> 10	–	> 10	0
CS(=O)(=O)c1ccc(C#N)cc1C(=O)Nc1ccc(C#N)c(F)c1 [Example 21, 5-cyano-N-(4-cyano-3-fluorophenyl)-2-(methylsulfonyl) benzamide]	1 to 10	–	1 to 10	79
CS(=O)(=O)c1ccc(C#N)cc1C(=O)Nc1ccc2ccncc2c1 [Example 22, 5-cyano-N-(isoquinolin-7-yl)-2-(methylsulfonyl) benzamide]	> 10	–	> 10	0
N#Cc1ccc(SC(F)(F)F)c(C(=O)Nc2ccnc(C(F)(F)F)c2)c1 [Example 24, 5-cyano-N-(2-(trifluorometh-yl)pyridin-4-yl)-2-((trifluorometh-yl)thio)benzamide]	1 to 10	–	1 to 10	49

Continued, in another order:

EC50 [1] [µM]	EC50 [2] [µM]	EC50 [3] [µM]	Structure (SMILES)	inhibition at 0.1 µM [2] [%]
0.1 to 1	0.0052	0.1 to 1	CS(=O)(=O)c1ccc(C#N)cc1C(=O)Nc1ccc(C#N)c(Cl)c1 [Example 1, N-(3-chloro-4-cyanophenyl)-5-cyano-2-(methylsulfonyl)benzamide]	86
0.1 to 1	–	0.1 to 1	N#Cc1ccc(SC(F)(F)F)c(C(=O)Nc2cc(F)c(-c3ccc(C(F)F)nc3)c(F)c2)c1 [Example 2, 5-cyano-N-(4-(6-(difluoromethyl)pyridin-3-yl)-3,5-difluorophenyl)-2-((trifluorometh-yl)thio)benzamide]	83
0.01 to 0.1	–	0.1 to 1	Cc1ccc(-c2c(F)cc(NC(=O)c3cc(C#N)ccc3SC(F)(F)F)cc2F)cn1 [Example 3, 5-cyano-N-(3,5-difluoro-4-(6-methylpyridin-3-yl)phenyl)-2-((trifluorometh-yl)thio)benzamide]	57
0.1 to 1	–	0.1 to 1	Cc1ccc(-c2c(F)cc(NC(=O)c3cc(C#N)ccc3S(C)(=O)=O)cc2F)cn1 [Example 4, 5-cyano-N-(3,5-difluoro-4-(6-methylpyridin-3-yl)phenyl)-2-(methylsulfonyl) benzamide]	74
0.1 to 1	–	1 to 10	CS(=O)(=O)c1ccc(C#N)cc1C(=O)Nc1cc(F)cc(F)c1 [Example 5, 5-cyano-N-(3,5-difluorophenyl)-2-(methylsulfonyl) benzamide]	40
0.1 to 1	–	0.1 to 1	N#Cc1ccc(SC(F)(F)F)c(C(=O)Nc2cc(F)cc(F)c2)c1 [Example 6, 5-cyano-N-(3,5-difluorophenyl)-2-(trifluorometh-ylsulfanyl)ben-zamide]	54
0.1 to 1	–	0.1 to 1	CS(=O)(=O)c1ccc(C#N)cc1C(=O)Nc1cc(Cl)cc(Cl)c1 [Example 8, 5-cyano-N-(3,5-dichlorophenyl)-2-(methylsulfonyl) benzamide]	41
0.1 to 1	–	0.1 to 1	CS(=O)(=O)c1ccc(C#N)cc1C(=O)Nc1ccc(C(F)(F)F)c(C#N)c1 [Example 10, 5-cyano-N-(3-cyano-4-(trifluorometh-yl)phenyl)-2-(methylsulfonyl) benzamide]	48
0.01 to 0.1	0.0013	0.1 to 1	CN1Cc2ccc(-c3c(F)cc(NC(=O)c4cc(C#N)ccc4S(C)(=O)=O)cc3F)cc2C1=O [Example 11, 5-cyano-N-(3,5-difluoro-4-(2-methyl-3-oxoisoindolin-5-yl)phenyl)-2-(methylsulfonyl) benzamide]	79
0.1 to 1	0.0029	0.1 to 1	CS(=O)(=O)c1ccc(C#N)cc1C(=O)Nc1cc(F)c(-c2ccc(C(F)F)nc2)c(F)c1 [Example 13, 5-cyano-N-(4-(6-(difluoromethyl)pyridin-3-yl)-3,5-difluorophenyl)-2-(methylsulfonyl) benzamide]	80
0.01 to 0.1	–	0.01 to 0.1	N#Cc1ccc(SC(F)(F)F)c(C(=O)Nc2cc(Cl)cc(Cl)c2)c1 [Example 15, 5-cyano-N-(3,5-dichlorophenyl)-2-((trifluorometh-yl)thio)benzamide]	46
0.01 to 0.1	–	0.01 to 0.1	CS(=O)(=O)c1ccc(C#N)cc1C(=O)Nc1cc(F)cc(Oc2ccc(Cl)cc2)c1 [Example 16, N-(3-(4-chlorophenoxy)-5-fluorophenyl)-5-cyano-2-(methylsulfonyl) benzamide]	–
0.01 to 0.1	–	0.01 to 0.1	CS(=O)(=O)c1ccc(C#N)cc1C(=O)Nc1cc(F)c(-c2ccc3c(c2)C(=O)NC3)c(F)c1 [Example 23, 5-cyano-N-(3,5-difluoro-4-(3-oxoisoindolin-5-yl)phenyl)-2-(methylsulfonyl) benzamide]	19
